Data from PMC8950706, “Influence of Substitutions in the Binding Motif of Proline-Rich Antimicrobial Peptide ARV-1502 on 70S Ribosome Binding and Antimicrobial Activity” (International Journal of Molecular Sciences, 2022).
pIC50, pKi: −log10 of the molar value. “Also recorded” adds a separate entry of the source. Square brackets hold non-standard residues; d marks the D form. Peptide text beside a SMILES is read from it. Ac6c = NC1(C(=O)O)CCCCC1

Assays:
[1] = test system: E. coli BW25113 ∆sbmA ∆mdtM; assay type: cell-based, Escherichia coli; settings: for Minimal Inhibitory Concentration, 25% MHB2, ∆sbmA ∆mdtM: 25% MHB2, 37 °C; for Minimal Inhibitory Concentration, 25% MHB2, ∆sbmA ∆mdtM / Minimal Inhibitory Concentration, 33% TSB, ∆sbmA ∆mdtM: 20 h, at least duplicates on two days, * once on two days, ** duplicate on one day; for Minimal Inhibitory Concentration, 33% TSB, ∆sbmA ∆mdtM: 37 °C; for Effect of the additional mdtM knockout on antibacterial activity: ∆sbmA ∆mdtM compared with ∆sbmA
Experimental: (§1) MIC values were determined using a liquid broth micro dilution assay in sterile 96-well plates (polystyrene F-bottom, Greiner Bio-One GmbH) and a total volume of 100 μL per well. Aqueous peptide solutions (10 g/L) were serially twofold diluted in 25% Mueller-Hinton broth 2 (25% MBH2) or 33% tryptic soy broth (33% TSB) starting at a peptide concentration of 128 mg/L (50 μL/well). Overnight cultures of bacteria grown in 25% MHB2 (or 33% TSB) were diluted 30-fold in 25% MHB2 (or 33% TSB). After an incubation period of 4 h (37 °C, 200 rpm), cells were diluted to 1.5 × 10^7 cfu/mL, based on a McFarland test, and 50 μL were added to each well (final concentration of 7.5 × 10^6 […]). The plates were incubated (37 °C, 20 h) and the optical density was recorded at 595 nm using a microplate reader ([…]^TM, Beckmann Coulter). The MIC was defined as the lowest peptide concentration preventing visible bacterial growth.

E. coli BW25113 ∆sbmA = assay type: cell-based, Escherichia coli; settings: 20 h, at least duplicates on two days, * once on two days, ** duplicate on one day; for Minimal Inhibitory Concentration, 25% MHB2, ∆sbmA: 25% MHB2, 37 °C; for Minimal Inhibitory Concentration, 33% TSB, ∆sbmA: 37 °C
Experimental: as §1

E. coli 70S ribosome [2] = assay: Cell-free GFP expression assay (in vitro translation); assay type: biochemical; settings: for In Vitro Translation (%): GFP expression remaining relative to control, concentration not given (higher concentration 50 µmol/L)
Outline: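 PURExpress ΔRF123 cell-free translation of sfGFP (UAA stop codon, 35 ng template) with diluted RF1, peptides at 5 and 50 µmol/L final. Incubated 2 h at 37 °C; GFP fluorescence (ex 485/em 535 nm) recorded every 10 min.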

E. coli BW25113 = assay: Checkerboard assay (FICI); assay type: cell-based, Escherichia coli; settings: E. coli BW25113, 25% MHB2; synergy FICI ≤ 0.5, antagonism FICI ≥ 4; Table S6
Experimental: Synergy was tested in sterile 96-well plates (polystyrene F-bottom, Greiner Bio-One GmbH) using a total volume of 100 μL per well. […] Plates were incubated (37 °C, 20 h) and the optical density recorded at 595 nm using a microplate reader (Victor3, Perkin Elmer Inc., Waltham, MA, USA). The fractional inhibitory concentration index (FICI) was calculated by the equation FICI = […] = (A/MICA) + (B/MICB), where MICA/B are the MICs of an antimicrobial peptide (A) and one of the three tested antibiotics (B) alone and A and B are the MICs of combined antimicrobials. Synergy was defined as FICI ≤ 0.5, antagonism as FICI ≥ 4 and additive or indifference as FICI between 0.5 and 4.

E. coli 70S ribosome [3] = assay: Competitive fluorescence polarization assay against Cf-Onc112 (Ki); assay type: binding; settings: Supplementary Figure S3; read-out: Ki as competitor of Cf-Onc112
Experimental: (§2) Dissociation and inhibitory constants were determined in black 384-well-plates (Greiner Bio-One GmbH, Frickenhausen, Germany) blocked with 0.5% (w/v) casein in phosphate buffered saline (PBS, 8.8 mmol/L Na2HPO4×12 H2O, 1.2 mmol/L KH2PO4, 0.3 mol/L NaCl, pH 7.4) containing 0.05% (w/v) Tween® 20 (PBST) overnight at 4 °C and washed three times with PBST.
(§3) Ribosome solution was added (10 µmol/L) and the plate was incubated after centrifugation (2 min, 500× g, Rotor S2096, Allegra^TM 21R, Beckmann Coulter) at 28 °C for 90 min. Cf-labeled peptide was added (10 µL; final concentration of 20 nmol/L; final ribosome concentration of 0.5 µmol/L) and the plate was centrifuged and incubated again (90 min, 28 °C, dark). Fluorescence polarization was recorded (λex = 485 nm, λem = 535 nm) on a […]^TM microplate reader. Kd and IC50 values were calculated by fitting the data with a variable slope parameter [y = min + (max − min)/(1 + (x/Kd) ^−Hill slope) ] using SigmaPlot 13 (Systat Software Inc., San Jose, CA, USA). The obtained IC50 values were used to calculate the Ki values.

E. coli 70S ribosome [4] = assay: Competitive fluorescence polarization assay against Cf-Api137 (Ki); assay type: binding; settings: Supplementary Figure S3; read-out: Ki as competitor of Cf-Api137
Experimental: as §2, §3

| Compound | Minimal Inhibitory Concentration, 25% MHB2, ∆sbmA ∆mdtM [1] | Minimal Inhibitory Concentration, 33% TSB, ∆sbmA ∆mdtM [1] | Effect of the additional mdtM knockout on antibacterial activity [1] | Minimal Inhibitory Concentration, 25% MHB2, ∆sbmA (E. coli BW25113 ∆sbmA) | Minimal Inhibitory Concentration, 33% TSB, ∆sbmA (E. coli BW25113 ∆sbmA) | In Vitro Translation (%) (E. coli 70S ribosome [2]) | Reduction of GFP expression, 50 µmol/L peptide (E. coli 70S ribosome [2]; cell-free expression, peptide-to-ribosome ratio of 25, GFP fluorescence, 37 °C) | Checkerboard assay (FICI), peptide combined with chloramphenicol (E. coli BW25113) | pKi (E. coli 70S ribosome [3]) | pKi (E. coli 70S ribosome [4]) | pIC50 (E. coli 70S ribosome [2]; in vitro translation, Supplementary Figure S2, reference 4 is also given at the place, read-out: IC50 of inhibition of GFP expression) | Reduction of GFP fluorescence intensity, 10-fold lower concentration (5 µmol/L peptide) (E. coli 70S ribosome [2]; cell-free expression, 2.5-fold peptide excess, 37 °C) |
| --- | --- | --- | --- | --- | --- | --- | --- | --- | --- | --- | --- | --- |
| CC(C)C[C@H](NC(=O)[C@H](Cc1ccc(O)cc1)NC(=O)[C@@H]1CCCN1C(=O)[C@H](CCCNC(=N)N)NC(=O)[C@@H]1CCCN1C(=O)[C@H](CCCCN)NC(=O)[C@H](CC(=O)O)NC(=O)[C@@H]1CCCN1C(=O)[C@H](CCCNC(=N)N)NC(=O)C1(N)CCCCC1)C(=O)N1CCC[C@H]1C(=O)N[C@@H](CCCNC(=N)N)C(=O)N1CCC[C@H]1C(=O)N[C@@H](CCCNC(=N)N)C(=O)N1CCC[C@H]1C(=O)N1CCC[C@H]1C(=O)N[C@@H](CCCNC(=N)N)C(=O)N1CCC[C@H]1C(=O)N[C@H](C(=O)N[C@@H](CCCNC(=N)N)C(N)=O)C(C)C [ARV-1502] (H-[Ac6c]RPDKPRPYLPRPRPPRPVR-NH2) | 64 µg/mL | 128 µg/mL | further decreased | 16 to 32 µg/mL | 64 µg/mL | 105.8 ± 0.9% | no significant effects; also recorded: not at all | did not indicate synergistic or antagonistic effects | 6.92 | 5.50 |  |  |
| CC[C@H](C)[C@H](NC(=O)[C@@H](CCCNC(=N)N)NC(=O)[C@H](CCCNC(=N)N)NC(=O)[C@@H]1CCCN1C(=O)[C@@H]1CCCN1C(=O)[C@H](CCCNC(=N)N)NC(=O)[C@@H]1CCCN1C(=O)[C@H](CCCNC(=N)N)NC(=O)[C@@H]1CCCN1C(=O)[C@H](CC(C)C)NC(=O)[C@H](Cc1ccc(O)cc1)NC(=O)[C@@H]1CCCN1C(=O)[C@@H]1CCCN1C(=O)[C@H](CCCCN)NC(=O)[C@H](CC(=O)O)NC(=O)[C@@H](N)C(C)C)C(=O)N[C@@H](Cc1ccc(O)cc1)C(=O)N[C@@H](CC(N)=O)C(=O)N[C@H](CCCNC(=N)N)C(N)=O [Onc112, reference compound] (H-VDKPPYLPRPRPPR[dR]IYN[dR]-NH2; N-terminus and C-terminus assumed) | 64 µg/mL | 128 µg/mL | weakened the activity | 16 to 32 µg/mL | 64 µg/mL | 4.9 ± 0.3% |  |  |  |  | 6.82 |  |
| CC(C)C[C@H](NC(=O)[C@H](Cc1ccc(O)cc1)NC(=O)[C@@H]1CCCN1C(=O)[C@H](CCCNC(=N)N)NC(=O)[C@@H]1CCCN1C(=O)[C@H](CCCCN)NC(=O)[C@H](CCCCN)NC(=O)[C@@H]1CCCN1C(=O)[C@H](CCCNC(=N)N)NC(=O)C1(N)CCCCC1)C(=O)N1CCC[C@H]1C(=O)N[C@@H](CCCNC(=N)N)C(=O)N1CCC[C@H]1C(=O)N[C@@H](CCCNC(=N)N)C(=O)N1CCC[C@H]1C(=O)N1CCC[C@H]1C(=O)N[C@@H](CCCNC(=N)N)C(=O)N1CCC[C@H]1C(=O)N[C@H](C(=O)N[C@@H](CCCNC(=N)N)C(N)=O)C(C)C [Peptide 2] (H-[Ac6c]RPKKPRPYLPRPRPPRPVR-NH2; N-terminus and C-terminus assumed) |  |  | no effect |  |  | 53.2 ± 8.2% |  | Slightly higher FICIs |  |  |  | 22% |
